Experimental data: US10206394B2, “Herbicidal compounds” (Syngenta Participations AG, priority 2014, dated 2019)
Read-outs that look alike come from different tables or passages of the source.

Legend:
Test in all cases: Glasshouse assay for herbicidal activity (pre- and post-emergence), percentage phytotoxicity
Assay type in all cases: in vivo
[1] = tested on: Alopecurus myosuroides (ALOMY); details: Alopecurus myosuroides
Description: (§1) Test—Glasshouse Assay for Herbicidal Activity
(§2) Seeds of a variety of monocotyledonous and dicotyledonous test plants are sown in standard soil in pots. The plants are cultivated for one day (for pre-emergence (PRE)) or for about 12 days (for post-emergence (POST)) under controlled conditions in a glasshouse (warm climate species at 24/18° C., cool climate species at 20/16° C., both at day/night; 16 hours light; 65% humidity).
(§3) The test plants are then grown on, in a glasshouse (greenhouse) under controlled conditions (warm climate species at 24/18° C., cool climate species at 20/16° C., both at day/night; 16 hours light; 65% humidity) and are watered twice daily. 15 days after application of the test herbicide (15 DAA) (for post-emergence), and 20 days after application of the test herbicide (20 DAA) (for pre-emergence), the test plants are evaluated visually, and an assessed percentage phytotoxicity score is given for each herbicidal application on each plant species (with 100%=total damage to plant; 0%=no damage to plant).
(§4) The plant species tested are as follows: Alopecurus myosuroides (ALOMY), Avena fatua (AVEFA), Lolium perenne (LOLPE), Echinochloa crus-galli (ECHCG).

[2] = tested on: Avena fatua (AVEFA); details: Avena fatua
Description: as §1, §2, §3, §4

[3] = tested on: Echinochloa crus-galli (ECHCG); details: Echinochloa crus-galli
Description: as §1, §2, §3, §4

[4] = tested on: Lolium perenne (LOLPE); details: Lolium perenne
Description: as §1, §2, §3, §4

Cc1cc(-c2ccc(Cl)cn2)cc(C)c1C1C(=O)CC(CC(=O)N(C)Cc2cccc(F)c2)C1=O (centres unmarked) [Compound B358] gave a pest or weed control at 250 g/ha ([1]; post-emergence, 360 h, Rate 250 g/ha, post-emergence, visual assessment 15 DAA, 100%=total damage, 0%=no damage, read-out: Post-emergence herbicidal activity (percentage phytotoxicity) ALOMY POST) of 100%, a pest or weed control at 250 g/ha ([1]; pre-emergence, 480 h, Rate 250 g/ha, pre-emergence, visual assessment 20 DAA, 100%=total damage, 0%=no damage, read-out: Pre-emergence herbicidal activity (percentage phytotoxicity) ALOMY PRE) of 90% and a pest or weed control at 250 g/ha ([2]; post-emergence, 360 h, Rate 250 g/ha, post-emergence, visual assessment 15 DAA, 100%=total damage, 0%=no damage, read-out: Post-emergence herbicidal activity (percentage phytotoxicity) AVEFA POST) of 100%. It also gave a pest or weed control at 250 g/ha ([2]; pre-emergence, 480 h, Rate 250 g/ha, pre-emergence, visual assessment 20 DAA, 100%=total damage, 0%=no damage, read-out: Pre-emergence herbicidal activity (percentage phytotoxicity) AVEFA PRE) of 100%, a pest or weed control at 250 g/ha ([3]; post-emergence, 360 h, Rate 250 g/ha, post-emergence, visual assessment 15 DAA, 100%=total damage, 0%=no damage, read-out: Post-emergence herbicidal activity (percentage phytotoxicity) ECHCG POST) of 100% and a pest or weed control at 250 g/ha ([3]; pre-emergence, 480 h, Rate 250 g/ha, pre-emergence, visual assessment 20 DAA, 100%=total damage, 0%=no damage, read-out: Pre-emergence herbicidal activity (percentage phytotoxicity) ECHCG PRE) of 100%. The pest or weed control at 250 g/ha ([4]; post-emergence, 360 h, Rate 250 g/ha, post-emergence, visual assessment 15 DAA, 100%=total damage, 0%=no damage, read-out: Post-emergence herbicidal activity (percentage phytotoxicity) LOLPE POST) was 90% and the pest or weed control at 250 g/ha ([4]; pre-emergence, 480 h, Rate 250 g/ha, pre-emergence, visual assessment 20 DAA, 100%=total damage, 0%=no damage, read-out: Pre-emergence herbicidal activity (percentage phytotoxicity) LOLPE PRE) was 90%.

COc1ccc(C(=O)OC2=C(c3c(C)cc(-c4ncc(Cl)cn4)cc3C)C(=O)C(CC(=O)NC(C)(C)C)C2)cc1 (centres unmarked) [Compound P1, [4-[2-(tert-butylamino)-2-oxo-ethyl]-2-[4-(5-chloropyrimidin-2-yl)-2,6-dimethyl-phenyl]-3-oxo-cyclopenten-1-yl] 4-methoxybenzoate] gave a pest or weed control at 250 g/ha ([1]; post-emergence, 360 h, post-emergence, 250 g/ha, 15 DAA, visual score (100%=total damage; 0%=no damage), read-out: ALOMY POST herbicidal activity (percentage phytotoxicity)) of 100%, a pest or weed control at 250 g/ha ([1]; pre-emergence, 480 h, pre-emergence, 250 g/ha, 20 DAA, visual score (100%=total damage; 0%=no damage), read-out: ALOMY PRE herbicidal activity (percentage phytotoxicity)) of 100% and a pest or weed control at 250 g/ha ([2]; post-emergence, 360 h, post-emergence, 250 g/ha, 15 DAA, visual score (100%=total damage; 0%=no damage), read-out: AVEFA POST herbicidal activity (percentage phytotoxicity)) of 100%. The pest or weed control at 250 g/ha ([2]; pre-emergence, 480 h, pre-emergence, 250 g/ha, 20 DAA, visual score (100%=total damage; 0%=no damage), read-out: AVEFA PRE herbicidal activity (percentage phytotoxicity)) was 100%, the pest or weed control at 250 g/ha ([3]; post-emergence, 360 h, post-emergence, 250 g/ha, 15 DAA, visual score (100%=total damage; 0%=no damage), read-out: ECHCG POST herbicidal activity (percentage phytotoxicity)) was 100% and the pest or weed control at 250 g/ha ([3]; pre-emergence, 480 h, pre-emergence, 250 g/ha, 20 DAA, visual score (100%=total damage; 0%=no damage), read-out: ECHCG PRE herbicidal activity (percentage phytotoxicity)) was 100%. The pest or weed control at 250 g/ha ([4]; post-emergence, 360 h, post-emergence, 250 g/ha, 15 DAA, visual score (100%=total damage; 0%=no damage), read-out: LOLPE POST herbicidal activity (percentage phytotoxicity)) was 100% and the pest or weed control at 250 g/ha ([4]; pre-emergence, 480 h, pre-emergence, 250 g/ha, 20 DAA, visual score (100%=total damage; 0%=no damage), read-out: LOLPE PRE herbicidal activity (percentage phytotoxicity)) was 100%.

Molecule C#CC(C)(C)NC(=O)CC1CC(=O)C(c2c(C)cc(C#CC)cc2C)C1=O (single isomer, unassigned) [Compound A56] has a pest or weed control at 250 g/ha ([1]; post-emergence, 360 h, Rate 250 g/ha, post-emergence, assessed visually 15 DAA, 100%=total damage, 0%=no damage, read-out: Post-emergence herbicidal activity (percentage phytotoxicity) ALOMY POST) of 100%, a pest or weed control at 250 g/ha ([1]; pre-emergence, 480 h, Rate 250 g/ha, pre-emergence, assessed visually 20 DAA, 100%=total damage, 0%=no damage, read-out: Pre-emergence herbicidal activity (percentage phytotoxicity) ALOMY PRE) of 100% and a pest or weed control at 250 g/ha ([2]; post-emergence, 360 h, Rate 250 g/ha, post-emergence, assessed visually 15 DAA, 100%=total damage, 0%=no damage, read-out: Post-emergence herbicidal activity (percentage phytotoxicity) AVEFA POST) of 100%. For the same molecule, the pest or weed control at 250 g/ha ([2]; pre-emergence, 480 h, Rate 250 g/ha, pre-emergence, assessed visually 20 DAA, 100%=total damage, 0%=no damage, read-out: Pre-emergence herbicidal activity (percentage phytotoxicity) AVEFA PRE) was 90%, the pest or weed control at 250 g/ha ([3]; post-emergence, 360 h, Rate 250 g/ha, post-emergence, assessed visually 15 DAA, 100%=total damage, 0%=no damage, read-out: Post-emergence herbicidal activity (percentage phytotoxicity) ECHCG POST) was 100% and the pest or weed control at 250 g/ha ([3]; pre-emergence, 480 h, Rate 250 g/ha, pre-emergence, assessed visually 20 DAA, 100%=total damage, 0%=no damage, read-out: Pre-emergence herbicidal activity (percentage phytotoxicity) ECHCG PRE) was 100%. For the same molecule, the pest or weed control at 250 g/ha ([4]; post-emergence, 360 h, Rate 250 g/ha, post-emergence, assessed visually 15 DAA, 100%=total damage, 0%=no damage, read-out: Post-emergence herbicidal activity (percentage phytotoxicity) LOLPE POST) was 90% and the pest or weed control at 250 g/ha ([4]; pre-emergence, 480 h, Rate 250 g/ha, pre-emergence, assessed visually 20 DAA, 100%=total damage, 0%=no damage, read-out: Pre-emergence herbicidal activity (percentage phytotoxicity) LOLPE PRE) was 90%.

In the case of C/C=C/c1cc(C)c(C2C(=O)CC(CC(=O)NCc3cccc(Cl)c3)C2=O)c(CC)c1 (centres unmarked) [Compound B187], the pest or weed control at 250 g/ha ([1]; post-emergence, 360 h, POST-emergence, rate 250 g/ha, visual score 15 DAA (100%=total damage, 0%=no damage), read-out: Post-emergence herbicidal activity (percentage phytotoxicity) ALOMY POST) is reported as 70%, the pest or weed control at 250 g/ha ([1]; pre-emergence, 480 h, PRE-emergence, rate 250 g/ha, visual score 20 DAA (100%=total damage, 0%=no damage), read-out: Pre-emergence herbicidal activity (percentage phytotoxicity) ALOMY PRE) is reported as 70% and the pest or weed control at 250 g/ha ([2]; post-emergence, 360 h, POST-emergence, rate 250 g/ha, visual score 15 DAA (100%=total damage, 0%=no damage), read-out: Post-emergence herbicidal activity (percentage phytotoxicity) AVEFA POST) is reported as 70%. For the same molecule, the pest or weed control at 250 g/ha ([2]; pre-emergence, 480 h, PRE-emergence, rate 250 g/ha, visual score 20 DAA (100%=total damage, 0%=no damage), read-out: Pre-emergence herbicidal activity (percentage phytotoxicity) AVEFA PRE) was 10%, the pest or weed control at 250 g/ha ([3]; post-emergence, 360 h, POST-emergence, rate 250 g/ha, visual score 15 DAA (100%=total damage, 0%=no damage), read-out: Post-emergence herbicidal activity (percentage phytotoxicity) ECHCG POST) was 100% and the pest or weed control at 250 g/ha ([3]; pre-emergence, 480 h, PRE-emergence, rate 250 g/ha, visual score 20 DAA (100%=total damage, 0%=no damage), read-out: Pre-emergence herbicidal activity (percentage phytotoxicity) ECHCG PRE) was 80%. It also gave a pest or weed control at 250 g/ha ([4]; post-emergence, 360 h, POST-emergence, rate 250 g/ha, visual score 15 DAA (100%=total damage, 0%=no damage), read-out: Post-emergence herbicidal activity (percentage phytotoxicity) LOLPE POST) of 90% and a pest or weed control at 250 g/ha ([4]; pre-emergence, 480 h, PRE-emergence, rate 250 g/ha, visual score 20 DAA (100%=total damage, 0%=no damage), read-out: Pre-emergence herbicidal activity (percentage phytotoxicity) LOLPE PRE) of 80%.
